Assay results taken from patent US5541229A, “Benzimidazoles and medicaments containing these compounds” (Dr. Karl Thomae GmbH, priority 1989, dated 1996).
Like-named read-outs stand apart in the source and are kept apart here.

How the values were obtained:
[1] = target: T1, bovine adrenal gland receptor preparations (Bos taurus, UniProt P25104); experiment: inhibition of angiotensin II bonding to bovine adrenal gland receptor preparations; assay type: binding
T1 construct: aliquots of a membrane preparation of bovine adrenal cortex in tris buffer; from tissue; host or cells: bovine adrenal cortex membranes
T1 sequence (P25104 1-359): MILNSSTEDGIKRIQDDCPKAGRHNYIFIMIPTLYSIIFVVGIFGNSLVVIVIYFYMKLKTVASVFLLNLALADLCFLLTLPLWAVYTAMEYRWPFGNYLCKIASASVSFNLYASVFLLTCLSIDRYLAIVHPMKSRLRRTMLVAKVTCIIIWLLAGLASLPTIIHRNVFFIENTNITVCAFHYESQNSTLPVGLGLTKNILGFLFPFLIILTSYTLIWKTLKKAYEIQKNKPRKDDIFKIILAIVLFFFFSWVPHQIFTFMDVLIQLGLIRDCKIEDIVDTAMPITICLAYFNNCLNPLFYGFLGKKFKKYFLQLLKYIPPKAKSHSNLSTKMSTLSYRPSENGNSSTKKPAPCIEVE
Procedure: After 45 minutes the incubation was stopped by rapid filtration through glass fibre filters. The radioactivity associated with the filter was determined in a […] at a counting efficiency of 80%.

[2] = target: T2, angiotensin II (Rattus norvegicus, UniProt P25095); experiment: displacement of angiotensin II dose-effect curves (increase in arterial blood pressure) in rats, pA2; assay type: in vivo; details: average, angiotensin II antagonism in rats, 10, 20 and 30 mg/kg i.v.
T2 construct: The measured parameter is the increase in the arterial blood pressure; from tissue; host or cells: whole anaesthetised rat with destroyed spine, in vivo (vascular receptors)
T2 sequence (P25095 1-359): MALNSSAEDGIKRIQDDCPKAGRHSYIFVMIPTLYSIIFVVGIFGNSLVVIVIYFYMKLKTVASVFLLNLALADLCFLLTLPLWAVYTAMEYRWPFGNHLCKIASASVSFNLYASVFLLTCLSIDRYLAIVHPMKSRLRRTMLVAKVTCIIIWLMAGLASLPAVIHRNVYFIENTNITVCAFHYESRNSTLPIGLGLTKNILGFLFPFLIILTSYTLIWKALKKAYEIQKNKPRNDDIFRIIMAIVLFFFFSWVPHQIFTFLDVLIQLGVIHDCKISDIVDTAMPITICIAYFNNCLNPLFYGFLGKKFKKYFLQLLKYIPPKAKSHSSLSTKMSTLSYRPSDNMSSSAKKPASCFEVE
Procedure: a) rats (male, 180-220 g) are anaesthetised using sodium hexobarbital (150 mg/kg i.p.). After the anaesthetic has taken effect, a tracheal cannula is inserted, the spine is destroyed in the animals and then they are immediately respirated artifically using a respiratory pump. The arterial blood pressure is recorded via a cannula in the carotid artery by means of a Bell & Howell pressure sensor. Substances are administered via a cannula in the jugular vein. Test substances are administered in three doses (10, 20 and 30 mg/kg i.v.), wherein one dose of substance is tested per animal. […] The measured parameter is the increase in the arterial blood pressure. These dose-effect graphs are compared with standard graphs for angiotensin II without test substances. A computer program determines the displacements to the right of the dose-effect graphs for angiotensin II as a result of test substances, and calculates corresponding pA2 values for the test substances.

Row | Structure (SMILES) | IC50 [1] | IC50 ([1]; 50% inhibition of the specific 125I-angiotensin II (50 pM) bonding, bovine adrenal cortex membranes, 45 minutes) | pA2 values [2]
1 | CCCCCCNC(=O)N(CCc1ccccc1)c1ccc2nc(CCCC)n(Cc3ccc(-c4ccccc4C(=O)O)cc3)c2c1 [AA] | 100 nM | – | –
2 | CCCCc1nc2ccc(N3C(=O)[C@H]4CCCC[C@H]4C3=O)cc2n1Cc1ccc(-c2ccccc2-c2nn[nH]n2)cc1 [CC] | 1000 nM | – | 8,54
3 | CCCCNC(=O)Nc1ccc2nc(CCCC)n(Cc3ccc(-c4ccccc4C(=O)O)cc3)c2c1 [O] | 65 nM | – | 6,46
4 | CCCCc1nc2ccc(NC(=O)CCC)cc2n1Cc1ccc(-c2ccccc2C(=O)O)cc1 [P] | 67 nM | – | 6,46
5 | CCCCc1nc2ccc(N(Cc3ccccc3)C(=O)OCC)cc2n1Cc1ccc(-c2ccccc2C(=O)O)cc1 [Q] | 68 nM | – | 6,83
6 | CCCCc1nc2ccc(NC(=O)N(C)C)cc2n1Cc1ccc(-c2ccccc2C(=O)O)cc1 [R] | 72 nM | – | 7,16
7 | CCCCCCN(C(=O)NC1CCCCC1)c1ccc2nc(CCCC)n(Cc3ccc(-c4ccccc4C(=O)O)cc3)c2c1 [S] | 72 nM | – | 6,69
8 | CCCCc1nc2ccc(NC(=O)NCCCCCO)cc2n1Cc1ccc(-c2ccccc2C(=O)O)cc1 [T] | 76 nM | – | 7,20
9 | CCCCCN(C(=O)NC)c1ccc2nc(CCCC)n(Cc3ccc(-c4ccccc4C(=O)O)cc3)c2c1 [U] | 79 nM | – | 7,20
10 | CCCCc1nc2ccc(NC(=O)C3CCCCC3)cc2n1Cc1ccc(-c2ccccc2C(=O)O)cc1 [V] | – | 84 nM | 7,26
11 | CCCCNC(=O)N(C)c1ccc2nc(CCCC)n(Cc3ccc(-c4ccccc4C(=O)O)cc3)c2c1 [W] | 86 nM | – | 6,28
12 | CCCCc1nc2c(C)ccc(O)c2n1Cc1ccc(-c2ccccc2-c2nn[nH]n2)cc1 [X] | 99 nM | – | 6,57
13 | CCCCc1nc2ccc(N3C(=O)[C@H]4CCCC[C@H]4C3=O)cc2n1Cc1ccc(-c2ccccc2C(=O)O)cc1 [Y] | 150 nM | – | 6,97
14 | CCCCc1nc2ccc(N(Cc3ccccc3)C(=O)N(C)C)cc2n1Cc1ccc(-c2ccccc2C(=O)O)cc1 [Z] | 133 nM | – | 7,15

More lines, in order of falling IC50 [1], values ahead:

Row | IC50 [1] | IC50 ([1]; 50% inhibition of the specific 125I-angiotensin II (50 pM) bonding, bovine adrenal cortex membranes, 45 minutes) | Structure (SMILES) | pA2 values [2]
15 | 65 nM | – | CCCCc1nc2ccc(NC(=O)NC3CCCCO3)cc2n1Cc1ccc(-c2ccccc2C(=O)O)cc1 (stereo not drawn) [N] | 7,02
16 | 61 nM | – | CCCCc1nc2ccc(NC(=O)C(C)C)cc2n1Cc1ccc(-c2ccccc2C(=O)O)cc1 [M] | 6,87
17 | 58 nM | – | CCCCc1nc2ccc(NC(=O)CC)cc2n1Cc1ccc(-c2ccccc2C(=O)O)cc1 [L] | 6,04
18 | 57 nM | – | CCCCC(=O)Nc1ccc2nc(CCCC)n(Cc3ccc(-c4ccccc4C(=O)O)cc3)c2c1 [K] | 6,38
19 | 54 nM | – | CCCCc1nc2ccc(N(Cc3ccccc3)C(=O)NC3CCCCC3)cc2n1Cc1ccc(-c2ccccc2C(=O)O)cc1 [J] | 7,38
20 | 51 nM | – | CCCCc1nc2ccc(N(Cc3ccccc3)C(=O)NC)cc2n1Cc1ccc(-c2ccccc2C(=O)O)cc1 [H] | 6,48
21 | 51 nM | – | CCCCc1nc2ccc(N3Cc4ccccc4C3=O)cc2n1Cc1ccc(-c2ccccc2C(=O)O)cc1 [I] | 6,12
22 | 46 nM | – | CCCCc1nc2ccc(NC(=O)C3CCCC3)cc2n1Cc1ccc(-c2ccccc2C(=O)O)cc1 [BB] | –
23 | 46 nM | – | CCCCc1nc2ccc(N(C)C(=O)NC3CCCCC3)cc2n1Cc1ccc(-c2ccccc2C(=O)O)cc1 [E] | 7,34
24 | 46 nM | – | CCCCCN(C(=O)NC1CCCCC1)c1ccc2nc(CCCC)n(Cc3ccc(-c4ccccc4C(=O)O)cc3)c2c1 [G] | 6,89
25 | 44 nM | – | CCCCc1nc2ccc(N(CCC)C(=O)NC3CCCCC3)cc2n1Cc1ccc(-c2ccccc2C(=O)O)cc1 [D] | 6,59
26 | 31 nM | – | CCCCc1nc2ccc(N(CC)C(=O)NC3CCCCC3)cc2n1Cc1ccc(-c2ccccc2C(=O)O)cc1 [C] | 6,36
27 | 29 nM | – | CCCCCCNC(=O)N(Cc1ccccc1)c1ccc2nc(CCCC)n(Cc3ccc(-c4ccccc4C(=O)O)cc3)c2c1 [A] | 7,23
28 | 29 nM | – | CCCCc1nc2ccc(N(CCCC)C(=O)NC3CCCCC3)cc2n1Cc1ccc(-c2ccccc2C(=O)O)cc1 [B] | 6,63
